Assay results reported in patent US20100047314A1 (OsteoGeneX Inc., priority 2008, published 2010).

Key:
male C57BL/6 mice [1] = test: Serum osteocalcin bone formation marker by EIA Elisa in mice treated 30 days; assay type: in vivo, mouse; conditions: 100 mg/kg i.p. daily for 30 days, four month old male C57BL/6 mice
Method: (§1) Four month old male C57BL/6 mice were treated daily with saline vehicle or the sclerostin inhibitor of calcium folinate at 10-100 mg/kg (via i.p) for 30 days. Study endpoints included a biochemical marker of bone formation; osteocalcin, measured by EIA Elisa, and measurement of trabecular bone volume by mico-CT analysis on the proximal tibia and Lumbar L5.

male C57BL/6 mice [2] = test: Trabecular bone volume by micro-CT analysis on proximal tibia and lumbar L5; assay type: in vivo, mouse
Method: as §1

Wnt pathway = test: Modulation of the Wnt pathway (FIG. 1); conditions: doses of 2.5 ng (low), 60 ng (medium), 125 ng (high) and 1250 ng (very high)
From the text: (§2) Compounds useful in the methods of the present invention can be identified via a variety of methods known to one of skill in the art. Several exemplary methods for identifying such antagonists are described herein, including cell-based and in vitro techniques (Journal of Bone and Mineral Research 2006, 21(11), 1738-1749). A general method of identifying SOST antagonists involves evaluating the effects of antagonist candidates on bone formation under controlled conditions. Preferably bone formation is determined using micro-CT techniques on live animals. Preferred animals include rodents, more preferred are primates. Femur, tibia and vertebrae bones are particularly useful subjects for such study.

mouse = test: Mouse bone formation assay of SOST antagonist candidates, examined by micro-CT; assay type: in vivo; conditions: versus control solution
From the text: as §2
Briefly, the test animal is treated with a predetermined dose of a SOST antagonist candidate. […]
Once the dosing schedule has been completed, both test and control animals are examined to determine the quantity of bone formation present. […] Where necessary, levels of bone formation can be calculated by determining the volume of bone formation present in each animal. […]
For example, the mouse test animal is treated with a predetermined dose of a SOST antagonist candidate for a complete dosing schedule. […] Once the dosing schedule has been completed, both test and control animals are examined with sacrifice using micro-CT to determine the quantity of bone formation present.

Row | Structure (SMILES) | percent increase in serum osteocalcin bone formation marker over saline controls (male C57BL/6 mice [1]) [%] | increase in bone volume for the tibia over baseline controls (male C57BL/6 mice [2]; 10 mg/kg i.p. daily for 30 days, proximal tibia, micro-CT) | increase in bone volume for lumbar L5 over controls (male C57BL/6 mice [2]; 100 mg/kg i.p. daily for 30 days, lumbar L5, micro-CT) [%] | modulation of the Wnt pathway to promote bone growth (Wnt pathway) | quantity of bone formation (promotion of bone growth) (mouse)
1 | Nc1nc(=O)c2c([nH]1)NCC(CNc1ccc(C(=O)N[C@@H](CCC(=O)[O-])C(=O)[O-])cc1)N2C=O.[Ca+2] (some centres unmarked) [calcium folinate] | 41 | greater than 37% | 51 |  | 
2 | Nc1nc(=O)c2c([nH]1)NCC(CNc1ccc(C(=O)NC(CCC(=O)O)C(=O)O)cc1)N2C=O (centres unmarked) [folinic acid] |  |  |  | modulating the Wnt pathway to promote bone growth | promoting bone growth
